Consider 53 compounds from paper PMC2747801 (European journal of pharmaceutical sciences : official …, 2009).

Read-outs that look alike come from different tables or passages of the source.

For data set [1] the following is noted: rat, cited from earlier work.
The conditions of data set [2]: male, mouse, pH 7.4; for logPS(obs): in vivo.
The conditions of data set [3]: cited from earlier work.
Where [4] appears, read: Kd (nonsaturable component) ref Momma et al. 1987.
Setting [5] is: 5-50uM self-inhibition, training set ref Summerfield et al. 2007.
Setting [6] is: 5-50uM self-inhibition, test set ref Summerfield et al. 2007.
Where [7] appears, read: Kd (nonsaturable component) ref Smith et al. 1986.
[8] abbreviates: test set ref Gratton et al. 1997.
Where [9] appears, read: PSC833,GF120918 ref Youdim et al. 2004.

Turning to `Nc1ccccc1C(=O)C[C@H](N)C(=O)O` [L-kynurenine], the “logPS(obs)” value in data set [1] (setting [4]) is −4.16 mL/g/s.

Regarding `CC(C)c1nc(CN(C)C(=O)N[C@H](C(=O)N[C@@H](Cc2ccccc2)C[C@H](O)[C@H](Cc2ccccc2)NC(=O)OCc2cncs2)C(C)C)cs1` [ritonavir], the “logPo^PAMPA” value was −1.68. For the same compound, in data set [2], the “logPS(obs)” value was −2.59 mL/g/s and the “Pgp Mutant Kin” value turned out to be 15 mL/100g/min. `OCCN1CCN(CCCN2c3ccccc3Sc3ccc(Cl)cc32)CC1` [perphenazine]: the “logPo^PAMPA” value turned out to be 0.81. Further, the “logPS(obs)” value in data set [1] (setting [5]) was −1.27 mL/g/s.

In the case of `OCCN1CCN(CCCN2c3ccccc3Sc3ccc(C(F)(F)F)cc32)CC1` [fluphenazine], the “logPS(obs)” value in data set [1] (setting [6]) is listed as −1.87 mL/g/s. `CC(C)[C@H](N)C(=O)O` [L-valine]: the “logPS(obs)” value in data set [1] (setting [7]) was −4.41 mL/g/s. In the case of `COc1cc2nc(N3CCN(C(=O)c4ccco4)CC3)nc(N)c2cc1OC` [prazosin], the “logPo^PAMPA” value in data set [3] (PAMPA intrinsic permeability, ref Ruell et al. 2004) was −2.58. For the compound `OC[C@@H](O)[C@@H](O)[C@H](O)[C@H](O)CO` [mannitol], in data set [1] (setting [8]), the “logPS(obs)” value is given as −5.01 mL/g/s. Take `CNS(=O)(=O)Cc1ccc2[nH]cc(CCN(C)C)c2c1` [sumatriptan]: in data set [3] (PAMPA intrinsic permeability, ref Avdeef 2005), the “logPo^PAMPA” value is reported as −4.18. Further, the “logPS(obs)” value in data set [1] (setting [5]) is reported as −4.60 mL/g/s. Regarding `C[C@]12CC[C@H]3[C@@H](CCC4=CC(=O)CC[C@@]43C)[C@@H]1CC[C@@H]2O` [testosterone], the “logPo^PAMPA” value was −2.83. Turning to `CSc1ccc2c(c1)N(CCC1CCCCN1C)c1ccccc1S2` (stereo not shown) [thioridazine], the “logPo^PAMPA” value stood at 1.81. The “logPS(obs)” value in data set [1] (setting [5]) is recorded as −1.37 mL/g/s. Turning to `NNCCc1ccccc1` [phenelzine], the “logPS(obs)” value in data set [1] (setting [6]) was −2.67 mL/g/s. As to `O=C1Cc2cc(CCN3CCN(c4nsc5ccccc45)CC3)c(Cl)cc2N1` [ziprasidone], the “logPS(obs)” value in data set [1] (setting [6]) is −1.73 mL/g/s.

Regarding `CC(C)Cc1ccc(C(C)C(=O)O)cc1` (stereo not shown) [ibuprofen], the “logPo^PAMPA” value in data set [3] (PAMPA intrinsic permeability, ref Ruell et al. 2004, Ruell et al. 2003) is given as −2.11. Turning to `O=c1[nH]c2ccccc2n1CCCN1CCC(n2c(=O)[nH]c3cc(Cl)ccc32)CC1` [domperidone], the “logPo^PAMPA” value is reported as −2.78. For the same compound, in data set [2], the “logPS(obs)” value was −2.79 mL/g/s. Regarding `OC[C@@H](O)[C@@H](O)CO` [erythritol], the “logPS(obs)” value in data set [1] (setting [8]) was −4.57 mL/g/s.

On to `CC(C)C[C@H](N)C(=O)O` [L-leucine], for which, in data set [1] (setting [7]), the “logPS(obs)” value is on record as −4.08 mL/g/s. For `CN1C[C@H](C(=O)N[C@]2(C)O[C@@]3(O)[C@@H]4CCCN4C(=O)[C@H](Cc4ccccc4)N3C2=O)C=C2c3cccc4[nH]cc(c34)C[C@H]21` [ergotamine], the “logPS(obs)” value in data set [1] (in vivo) was −2.06 mL/g/s. On to `OC[C@H]1O[C@@](CO)(O[C@H]2O[C@H](CO)[C@@H](O)[C@H](O)[C@H]2O)[C@@H](O)[C@@H]1O` [sucrose], for which, in data set [1] (setting [8]), the “logPS(obs)” value is listed as −5.30 mL/g/s.

On to `CN1CCCCC1CCN1c2ccccc2Sc2ccc([S+](C)[O-])cc21` (stereo not shown) [mesoridazine], for which the “logPS(obs)” value in data set [1] (setting [6]) is −1.81 mL/g/s. Consider `CN1CCN(CCCN2c3ccccc3Sc3ccc(C(F)(F)F)cc32)CC1` [trifluoperazine], for which the “logPS(obs)” value in data set [1] (setting [6]) was −1.88 mL/g/s.

`CCN(C(C)=O)c1cccc(-c2ccnc3c(C#N)cnn23)c1` [zaleplon]: the “logPS(obs)” value in data set [1] (in vivo) is given as −2.25 mL/g/s. Turning to `O=C1C[C@@H](c2ccc(O)cc2)Oc2cc(O)cc(O)c21` [naringenin], the “logPo^PAMPA” value is −3.71. The “logPS(obs)” value in data set [1] (setting [9]) is listed as −2.60 mL/g/s.

For the compound `Nc1nnc(-c2cccc(Cl)c2Cl)c(N)n1` [lamotrigine], in data set [1] (setting [6]), the “logPS(obs)” value was −2.67 mL/g/s. Consider `NC1(C(=O)O)CCCCC1` [1-aminocyclohexanecarboxylic acid], for which the “logPS(obs)” value in data set [1] (Kd (nonsaturable component) ref Aoyagi et al. 1988) is −4.00 mL/g/s. Consider `NC(N)=S` [thiourea], for which the “logPS(obs)” value in data set [1] (setting [8]) is given as −3.36 mL/g/s. For `OCCO` [ethylene glycol], the “logPS(obs)” value in data set [1] (in vivo) is on record as −2.99 mL/g/s.

Turning to `CCCC(C)(COC(N)=O)COC(N)=O` [meprobamate], the “logPS(obs)” value in data set [1] (setting [6]) is reported as −3.09 mL/g/s.

For the compound `C[C@]12CC[C@@H]3c4ccc(O)cc4CC[C@H]3[C@@H]1CC[C@@H]2O` [estradiol], the “logPo^PAMPA” value is reported as −3.08. `O=c1n(CCCN2CCN(c3cccc(Cl)c3)CC2)nc2ccccn12` [trazodone]: the “logPS(obs)” value in data set [1] (setting [6]) is listed as −1.47 mL/g/s.

With `COc1ccc([C@@H]2Sc3ccccc3N(CCN(C)C)C(=O)[C@@H]2OC(C)=O)cc1` [diltiazem], the “logPo^PAMPA” value in data set [3] (PAMPA intrinsic permeability, ref Avdeef et al. 2005) is listed as −1.33. Consider `Clc1ccc2c(c1)C(N1CCNCC1)=Nc1ccccc1O2` [amoxapine], for which, in data set [1] (setting [6]), the “logPS(obs)” value is reported as −1.18 mL/g/s. Turning to `Cc1cc(=O)n(-c2ccccc2)n1C` [antipyrine], in data set [3] (PAMPA), the “logPo^PAMPA” value is −5.69. Consider `CCC(=O)C(CC(C)N(C)C)(c1ccccc1)c1ccccc1` (stereo not shown) [methadone], for which the “logPo^PAMPA” value was 0.08.

On to `CN(C)CCc1c[nH]c2ccc(Cn3cncn3)cc12` [rizatriptan], for which the “logPS(obs)” value in data set [1] (setting [6]) is −3.76 mL/g/s. For the compound `OCCOCCN1CCN(C2=Nc3ccccc3Sc3ccccc32)CC1` [quetiapine], the “logPo^PAMPA” value is recorded as −1.85. In data set [1] (setting [5]), the “logPS(obs)” value is −1.33 mL/g/s.

For `O=C(CCCN1CCC(O)(c2ccc(Cl)cc2)CC1)c1ccc(F)cc1` [haloperidol], in data set [3] (PAMPA intrinsic permeability, ref Avdeef et al. 2006), the “logPo^PAMPA” value is recorded as 0.05. As to `Cc1nc2n(c(=O)c1CCN1CCC(c3noc4cc(F)ccc34)CC1)CCCC2` [risperidone], the “logPo^PAMPA” value is −2.01.

With `OCCOCCN1CCN(C(c2ccccc2)c2ccc(Cl)cc2)CC1` (stereo not shown) [hydroxyzine], the “logPo^PAMPA” value is recorded as −1.50. For `COc1cc2c(c(OC)c1OC)-c1ccc(OC)c(=O)cc1[C@@H](NC(C)=O)CC2` [colchicine], the “logPo^PAMPA” value was −5.40. The “logPS(obs)” value in data set [1] (in vivo) is on record as −3.24 mL/g/s.

For `Cc1ccsc1C(=CCCN1CCC[C@@H](C(=O)O)C1)c1sccc1C` [tiagabine], the “logPS(obs)” value in data set [1] (setting [5]) is recorded as −2.46 mL/g/s. For `O=C(O)c1ccccc1O` [salicylic acid], in data set [3] (PAMPA intrinsic permeability, ref Ruell et al. 2003), the “logPo^PAMPA” value is −2.64. In the case of `CN(C)C(=O)C(CCN1CCC(O)(c2ccc(Cl)cc2)CC1)(c1ccccc1)c1ccccc1` [loperamide], the “logPo^PAMPA” value was determined as 0.15. `O=c1c(O)c(-c2ccc(O)c(O)c2)oc2cc(O)cc(O)c12` [quercetin]: the “logPo^PAMPA” value was −4.77. Besides, the “logPS(obs)” value in data set [1] (setting [9]) was −3.50 mL/g/s.

In the case of `COc1ccc(C(CN(C)C)C2(O)CCCCC2)cc1` (stereo not shown) [venlafaxine], in data set [1] (in vivo), the “logPS(obs)” value was −1.98 mL/g/s. `CCCN1C[C@H](CSC)C[C@@H]2c3cccc4[nH]cc(c34)C[C@H]21` [pergolide]: the “logPS(obs)” value in data set [1] (setting [6]) is listed as −1.00 mL/g/s. Take `CN1CCN2c3ncccc3Cc3ccccc3C2C1` (stereo not shown) [mirtazapine]: the “logPS(obs)” value in data set [1] (setting [6]) was −1.39 mL/g/s.

For the compound `N[C@@H](Cc1ccc(N(CCCl)CCCl)cc1)C(=O)O` [melphalin], the “logPS(obs)” value in data set [1] (in vivo) is given as −3.28 mL/g/s. With `Nc1c(O)cccc1C(=O)CC(N)C(=O)O` (stereo not shown) [3-hydroxykynurenine], the “logPS(obs)” value in data set [1] (Kd (nonsaturable component) ref Fukui et al. 1991) was −4.49 mL/g/s. With `N[C@@H](Cc1ccccc1)C(=O)O` [L-phenylalanine], the “logPo^PAMPA” value is listed as −5.36. In data set [1] (setting [4]), the “logPS(obs)” value is reported as −3.74 mL/g/s. For the compound `Cc1c(N2C[C@@H](N)C3(CC3)C2)c(F)c(N)c2c(=O)c(C(=O)O)cn(C3CC3)c12` [HSR-903], in data set [1] (20 mM self-inhibition ref Murata et al. 1999), the “logPS(obs)” value was −3.14 mL/g/s. With `Cc1ncc2n1-c1ccc(Cl)cc1C(c1ccccc1F)=NC2` [midazolam], the “logPS(obs)” value in data set [1] (in vivo) is on record as −1.17 mL/g/s. Turning to `CCC1(C)CC(=O)NC1=O` (stereo not shown) [ethosuximide], in data set [1] (setting [6]), the “logPS(obs)” value was −2.47 mL/g/s. Take `CNCC[C@@H](Oc1ccccc1C)c1ccccc1` [atomoxetine]: the “logPS(obs)” value in data set [1] (setting [6]) was −1.39 mL/g/s.
